In US7429564B2, “Oral insulin therapy” (Emisphere Technologies, Inc., priority 2002, dated 2008):

Tests used:
[1] = Delivery agent plasma concentrations in humans after oral delivery agent capsules; type: in vivo, human; details: plasma; oral capsules, 750 mg, healthy human volunteers
Experimental: Delivery agents 1-3 were investigated for their ability to penetrate the GI mucosa. The plasma concentration of each delivery agent was measured in human subjects after oral administration of delivery agent loaded capsules as a measure of each delivery agent's penetration efficiency.
Blood sampling for plasma delivery agent concentration determination (2 mL in sodium heparin tube) were drawn 15 minutes before dosing, and at 5, 10, 15, 30, and 45 minutes and 1, 1.5, 2, 3, 4, 6, 8, and 12 hours post-dose (14 samples per treatment) for delivery agent measurements in all treatment groups.
Two 18-gauge IV lines were situated prior to dosing; one for blood sampling, and the other for potential infusion of 20% glucose for subjects in groups 2 and 3. The subjects in group 1 only had one cannula inserted. The blood samples were centrifuged at 3000 rpm for a period of fifteen minutes at a temperature from about 2° C. to 8° C., within one hour of sample collection. Using a plastic pipette and without disturbing the red cell layer, the plasma from the collection tube was pipetted in duplicate for each analysis, blood glucose, Human Insulin, C-peptide, delivery agent into pre-labeled polypropylene tubes. The samples were stored at −70° C. until analysis.
The indicated doses were ingested by healthy human volunteers and the plasma concentrations of the delivery agents were monitored over time and the area under the curve (AUC) calculated. […] Similarly, oral administration of 800 mg of delivery agent number 3 produced more than a 23 fold greater penetration of the GI mucosa in humans than did oral administration of 750 mg of delivery agent 2 having n equal to 9 alkyl.

[2] = Delivery agent plasma concentrations in monkeys after oral administration; type: in vivo; details: monkey, plasma, oral, 300 mg
Experimental: Similar results were obtained when delivery agents 1-3 were administered orally to monkeys and the plasma concentrations of the delivery agents monitored over time and the AUC calculated.

serum glucose = assay: Effective clinical dose of delivery agent in humans (delivery efficiency); type: in vivo, human; details: active agent heparin
Experimental: Next, delivery agents 1-3 were compared for the ability to efficiently transport an active agent across the GI mucosa in a biologically active form by determining the relationship between delivery agent dose, dose of active agent and the glucose response. The effective dose of delivery agent necessary to deliver a therapeutic dose of active agent and produce a therapeutic effect was measured. For delivery agent 3, the active agent was insulin, and the therapeutic effect was determined by the ability of the delivery agent/insulin combination to lower serum glucose by at least 10% within one hour post administration. For delivery agents 1 and 2, the active agent was heparin, and the therapeutic effect was determined by […]

blood glucose = assay: Example 7: postprandial blood glucose excursions after standardized breakfast, type 2 diabetic patients; type: in vivo, human
Experimental: A randomized, 3-period crossover, double-blind, double-dummy study was conducted in order to compare the effect (i.e., the postprandial pharmacokinetic and pharmacodynamic profiles) of an oral insulin formulation with that of s.c. administered short acting insulin on postprandial blood glucose excursions in Type 2 Diabetic subjects without any antidiabetic medication.
All patients received the same oral and SC injection treatments in a randomized sequence. […]
Blood samples for blood glucose determination (0.25 mL per sample) were taken at −1 min (baseline), 5 minutes after start of meal intake and thereafter in 5 minute intervals until 120 minutes, 10 minute intervals until 240 minutes, and 15 minute intervals until 360 minutes after start of meal intake (45 samples per session). Blood glucose concentrations were measured immediately after sample collection using an automated GOD method (Super GL Ambulance Glucose Analyzer, Ruhrtal Labortechnik, Delecke-Möhnesee, Germany). […]
For pharmacodynamic assessment, the following parameters were calculated: Maximal blood glucose excursion (BGmax), time to BGmax (tBGmax) Area under the blood glucose excursion curve in defined time-intervals (AUCBG 0-1h, AUCBG 0-2h, AUCBG 0-3h, AUCBG 0-4h, AUCBG 0-6h), maximal absolute blood glucose concentrations (BGabsmax), time to BGabsmax (tBGabsmax). […]

| AUC [1] [ng·h/mL] | AUC [2] [ng·h/mL] | Compound | Effective clinical dose of delivery agent (serum glucose) [Mg] | Mean fasting blood glucose at baseline (−1 minute) (blood glucose; 12 U SC, dosed 15 min before meal, mean (range)) [mg/dL] | Time to maximal glucose excursion (median) (blood glucose; SC 12 U, 15 min before meal) [h] |
| --- | --- | --- | --- | --- | --- |
| 3500 | 45 | O=C(O)CCCCCCCNC(=O)c1ccccc1O [1 (SNAC), reference compound] | 2400 | – | – |
| 2040 | 82 | O=C(O)CCCCCCCCCNC(=O)c1ccccc1O [2 (SNAD), reference compound] | 1500 | – | – |
| – | – | SC short-acting insulin: subcutaneous injected short acting insulin, Humalog injection 100 U/ml from Eli Lilly | – | 143.11 | 1.3 |
